Patent US7718170B2, “Alkaline phosphatase compositions to reduce skin cancer” (Essential Skincare, LLC, priority 2006, dated 2010)

B1: Purified PALP: human placental alkaline phosphatase purified to homogeneity from commercial Sigma-Aldrich PALP; it is 'PALP' in Table 2, b31 and b104 (protein, UniProt P05187 23-506, looked up)
Alkaline phosphatase, …: IIPVEEENPDFWNREAAEALGAAKKLQPAQTAAKNLIIFLGDGMGVSTVTAARILKGQKKDKLGPEIPLAMDRFPYVALSKTYNVDKHVPDSGATATAYLCGVKGNFQTIGLSAAARFNQCNTTRGNEVISVMNRAKKAGKSVGVVTTTRVQHASPAGTYAHTVNRNWYSDADVPASARQEGCQDIATQLISNMDIDVILGGGRKYMFRMGTPDPEYPDDYSQGGTRLDGKNLVQEWLAKRQGARYVWNRTELMQASLDPSVTHLMGLFEPGDMKYEIHRDSTLDPSLMEMTEAALRLLSRNPRGFFLFVEGGRIDHGHHESRAYRALTETIMFDDAIERAGQLTSEEDTLSLVTADHSHVFSFGGYPLRGSSIFGLAPGKARDRKAYTVLLYGNGPGYVLKDGARPDVTESESGSPEYRQQSAVPLDEETHAGEDVAVFARGPQAHLVHGVQEQTFIAHVMAFAACLEPYTACDLAPPAGTTD

Experiments:
B16 mouse melanoma [1] = experiment: B16 mouse melanoma tumor growth (tumor volume by calipers); format: in vivo; details: subcutaneous injection
B16 mouse melanoma [2] = experiment: as above; format: in vivo; details: for Tumor volumes; Day 8 after tumor transplantation: local cream 150 mg per application on days 8, 11, 13, 15, 18, 20, day 8 = start, mean of 5 animals
Text: The B16 mouse melanoma tumors were developed in first generation hybrid BDF1 (C57 B1 female×DBA/2 male) adult female mice kept at specified pathogen free (SPF) hygienic level. These mice have the complete immune system. The human H-168 melanoma tumors were developed in the homozygous line of C.B.-171 cr scid/scid mice (with severely compromised immune deficiency) which is an inbred mutant strain. In each case, tumor tissue fragments of about 0.1-cm^3 were surgically implanted subcutaneously into the intrascapular region to develop the tumors. Each tumor fragment contained 1-1.5×10^6 cells. The animals were kept in macrolon cages on ventilated rack at 22-24° C. (50-60% humidity) with lighting regimen of 12/12 h light/dark. The animals had free access to tap water and were fed with sterilized standard diet (Charles River VRF1, Germany) ad libitum. The animals were taken care of according to the “Guiding Principle for the care and use of Animals” based upon the Helsinki declaration and they were approved by the local ethical committee.
The mice bearing the rapidly growing B16 melanoma tumors were used after 8-11 days of tumor transplantation, while mice bearing the slower growing H-168 melanoma were used after 17 days of transplantation. In either case, when the tumor-bearing mice were used, the size of the tumors was in the 0.3-0.6 cm^3 range; animals were selected so that in the same treatment group the difference in tumor size was no greater than 0.1 cm^3 PALP, TF, or AT were used topically in a cream alone or in combination; in each case, 150-mg cream was applied on the tumor and the vicinity of tumor area (with about 0.3-0.5 cm margin). The tumor volume was determined by using calipers; this technique is well known to one having ordinary skill in the art. Tumor volume was calculated according to the generally accepted formula: V=a^2×b×π/6, where “a” and “b” mean the shortest and longest diameter, respectively, of the measured tumor.
The aggressive B16 mouse melanoma model was developed as described under Example 3. On day 11 after transplantation of tumor cells, the animals were either remained untreated (Group 1) or were treated with 15 mg/kg highly purified PALP via subcutaneous administration (Group 2). In Group 3, the tumors were treated locally with 150-mg of cream containing 4 mg commercial PALP in 1 g of Vaselinum cholesteratum. In Group 4, the animals were treated simultaneously locally with commercial PALP containing cream and via subcutaneous injection with highly purified PALP. Each treatment was performed once daily for seven consecutive days (i.e., treatments were terminated on day 18). Locally administered PALP preparation, and to a somewhat smaller extent injected purified PALP, inhibited the growth of B16 melanoma. The inhibitory effects remained significant even on day 23, 5 days after the last treatment. When PALP preparations were simultaneously administered via both routes, the combined effects were greater than the individual effects. […] Alternatively, optimal effects could require the presence of all 3 proteins. Experiments presented later confirm that the inhibitory effects of purified PALP on melanoma growth are greater in the simultaneous presence of TF and AT.
The B16 mouse melanoma model was developed as described under Example 3. On day 8 after transplantation of tumor cells, the animals either remained untreated (Group 1) or in other animal groups the tumors were treated locally with creams (150 mg per application) containing active components as follows: Group 2, 0.4 mg of purified PALP per 1-g Vaseline; Group 3, 0.5 mg of purified partially iron-saturated TF per 1-g Vaseline; Group 4, 0.4 mg of PALP+0.5 mg TF per 1-g Vaseline; Group 5, 1.2 mg of purified AT per 1-g Vaseline; Group 6, 0.4 mg of PALP+0.5 mg TF+1.2 mg of purified AT per 1-g Vaseline; and Group 7, Vaselinum cholesteratum alone. Each treatment was performed once daily on days 8, 11, 13, 15, 18 and 20. […]

B16 melanoma = experiment: Lung metastasis of B16 melanoma (macroscopic lung colonies); format: in vivo, mouse; details: treatments from day 11, daily, counted 21 days after starting the treatments, 7 animals, parentheses = smallest and highest numbers in the group
Protocol: B16 melanoma cells are highly metastatic that are known to preferably form metastatic colonies in the lung. The goal of this experiment was to determine if any of the components present in commercial PALP or the mode of application affect the metastatic process.
The B16 melanoma model described under Example 3 was used. The treatments of mice bearing the rapidly growing B16 melanoma were started 11 days after tumor transplantation; additional treatments were performed on each day for six consecutive days. In each experimental group seven animals were used. In the first group, animal tumors were treated locally with 200 mg Vaseline (control group). In the second group, animal tumors were locally treated with 200 mg Vaseline cream containing 4 mg commercial PALP per 1-g Vaseline. In the third group, animals were subcutaneously injected commercial PALP (1.5 mg per animal or 60 mg per kg). In the fourth group, animals were treated with commercial PALP both locally and subcutaneously. In the fifth group, animals were subcutaneously injected highly purified PALP (0.35 mg per animal or 14 mg per 1 kg). In the sixth group, animals were subcutaneously injected partially iron-saturated human TF (0.4 mg per animal or 16 mg per 1 kg). In the seventh group, animal tumors were locally treated with 200 mg Vaseline cream containing 1.0 mg human TF per 1 g Vaseline. In the last group, the tumors were untreated during the entire period of experiment. The macroscopic colonies were counted in the lung (7 animals in each group) 21 days after starting the treatments. The data are presented in TABLE 5; numbers in the parentheses indicate the smallest and highest numbers of metastatic lung colonies in the same group.

fibroblast = experiment: Fibroblast proliferation in vitro after pre-heating of TF; format: cell-based; details: pre-heating at up to 75° C. for 30 min
Protocol: The stimulatory effects of TF on fibroblast proliferation in vitro are not altered by pre-heating it at up to 75° C. for 30 min. Thus, pre-heating of TF-containing compositions to enhance the effects of other components, such as PALP and AT will be unlikely to alter other effects of TF such as inhibition of melanoma growth.

[3] = Organ pathology in mice after repeated injection; format: in vivo; details: 16 mg/kg injected 15-times over a 3 weeks period
[4] = subcutaneous injection, CCDTHT 4.6 mg/kg once daily day 11-22, mean of 5 mice
[5] = local cream 150 mg per application on days 8, 11, 13, 15, 18, 20, mean of 5 animals
[6] = BDF1 mice, 5 days after the last treatment, mean of 7 animals
[7] = BDF1 mice, day 11 = start of treatment, once daily for seven consecutive days, mean of 7 animals
[8] = BDF1 mice, treated once daily from day 11 for seven days, mean of 7 animals
[9] = BDF1 mice, treated once daily from day 11 for seven days, treatments terminated on day 18, mean of 7 animals
[10] = BDF1 mice, treatments terminated on day 18, mean of 7 animals

Molecule	Tumor volumes; Day 8 after tumor transplantation (B16 mouse melanoma [2]) [cm^3]	Tumor volumes; Day 11 after tumor transplantation (B16 mouse melanoma [2]; [5]) [cm^3]	Tumor volumes; Day 13 after tumor transplantation (B16 mouse melanoma [2]; [5]) [cm^3]	Tumor volumes; Day 15 after tumor transplantation (B16 mouse melanoma [2]; [5]) [cm^3]	Tumor volumes; Day 18 after tumor transplantation (B16 mouse melanoma [2]; [5]) [cm^3]	Tumor volumes; Day 20 after tumor transplantation (B16 mouse melanoma [2]; [5]) [cm^3]	Number of lung colonies per lung* (B16 melanoma)	Tumor volumes; Day 23 after tumor transplantation (B16 mouse melanoma [2]; [6]) [cm^3]	Tumor volumes; Day 11 after tumor transplantation (B16 mouse melanoma [2]; [7]) [cm^3]	Tumor volumes; Day 14 after tumor transplantation (B16 mouse melanoma [2]; [8]) [cm^3]	Tumor volumes; Day 16 after tumor transplantation (B16 mouse melanoma [2]; [8]) [cm^3]	Tumor volumes; Day 18 after tumor transplantation (B16 mouse melanoma [2]; [9]) [cm^3]	Tumor volumes; Day 21 after tumor transplantation (B16 mouse melanoma [2]; [10]) [cm^3]	further results
CC[N+](C)(CC)CCOCc1ccc2sc3ccccc3c(=O)c2c1.[I-] [CCDTHT, N,N-diethyl-N-methyl-2-[(9-oxo-9H-thioxanthen-2-yl)methoxy]-ethanaminium iodide]														Tumor volumes; Day 11 after tumor transplantation (B16 mouse melanoma [1]; CCDTHT 4.6 mg/kg once daily day 11-22, day 11 = start, mean of 5 mice): 0.83 cm^3; Tumor volumes; Day 21 after tumor transplantation (B16 mouse melanoma [1]; CCDTHT 4.6 mg/kg once daily day 11-22, mean of 5 mice): 2.60 cm^3; Tumor volumes; Day 14 after tumor transplantation (B16 mouse melanoma [2]; [4]): 1.20 cm^3; Tumor volumes; Day 16 after tumor transplantation (B16 mouse melanoma [2]; [4]): 1.40 cm^3; Tumor volumes; Day 18 after tumor transplantation (B16 mouse melanoma [2]; [4]): 1.90 cm^3; Tumor volumes; Day 23 after tumor transplantation (B16 mouse melanoma [2]; [4]): 3.00 cm^3
AT: human α1-antitrypsin, essentially pure, purified from commercial PALP preparation	0.42	0.83	1.60	2.55	3.48	4.80								
TF: human transferrin, partially iron-saturated, Sigma-Aldrich T 3309	0.34	0.79	1.38	2.19	3.07	3.83	doubling	3.88	0.71	1.00	1.13	2.00	3.12	Number of lung colonies per lung* (B16 melanoma; listed as TF, local applications): 17 (10-21); Number of lung colonies per lung* (B16 melanoma; listed as TF, subcutaneous applications): 38 (29-44); Stimulatory effects on fibroblast proliferation in vitro after pre-heating (fibroblast): not altered
B1							16 (9-18)	3.63	0.75	1.16	1.55	2.13	3.47	Pathological effects (cell death or immune cell infiltration) in liver, lung, heart, blood, kidney, muscle, brain, spleen, intestine [3]: has not caused any significant pathological effects
